Results reported in US8436178B2, “Imidazoquinolines with immuno-modulating properties” (AstraZeneca AB, priority 2007, dated 2013).

target: T1, human TLR7 (Homo sapiens, UniProt Q9NYK1); test: Human TLR7 assay (SEAP reporter in HEK293 cells); assay type: cell-based; details: SEAP induction in HEK293 cells expressing human TLR7, overnight incubation at 37° C., 0.1% DMSO
T1 construct: expressed in transfected cells; host or cells: HEK293 cell line stably expressing the pNiFty2-SEAP reporter plasmid; TLR7 in pUNO vector, blasticidin selection
T1 sequence (Q9NYK1 27-1049): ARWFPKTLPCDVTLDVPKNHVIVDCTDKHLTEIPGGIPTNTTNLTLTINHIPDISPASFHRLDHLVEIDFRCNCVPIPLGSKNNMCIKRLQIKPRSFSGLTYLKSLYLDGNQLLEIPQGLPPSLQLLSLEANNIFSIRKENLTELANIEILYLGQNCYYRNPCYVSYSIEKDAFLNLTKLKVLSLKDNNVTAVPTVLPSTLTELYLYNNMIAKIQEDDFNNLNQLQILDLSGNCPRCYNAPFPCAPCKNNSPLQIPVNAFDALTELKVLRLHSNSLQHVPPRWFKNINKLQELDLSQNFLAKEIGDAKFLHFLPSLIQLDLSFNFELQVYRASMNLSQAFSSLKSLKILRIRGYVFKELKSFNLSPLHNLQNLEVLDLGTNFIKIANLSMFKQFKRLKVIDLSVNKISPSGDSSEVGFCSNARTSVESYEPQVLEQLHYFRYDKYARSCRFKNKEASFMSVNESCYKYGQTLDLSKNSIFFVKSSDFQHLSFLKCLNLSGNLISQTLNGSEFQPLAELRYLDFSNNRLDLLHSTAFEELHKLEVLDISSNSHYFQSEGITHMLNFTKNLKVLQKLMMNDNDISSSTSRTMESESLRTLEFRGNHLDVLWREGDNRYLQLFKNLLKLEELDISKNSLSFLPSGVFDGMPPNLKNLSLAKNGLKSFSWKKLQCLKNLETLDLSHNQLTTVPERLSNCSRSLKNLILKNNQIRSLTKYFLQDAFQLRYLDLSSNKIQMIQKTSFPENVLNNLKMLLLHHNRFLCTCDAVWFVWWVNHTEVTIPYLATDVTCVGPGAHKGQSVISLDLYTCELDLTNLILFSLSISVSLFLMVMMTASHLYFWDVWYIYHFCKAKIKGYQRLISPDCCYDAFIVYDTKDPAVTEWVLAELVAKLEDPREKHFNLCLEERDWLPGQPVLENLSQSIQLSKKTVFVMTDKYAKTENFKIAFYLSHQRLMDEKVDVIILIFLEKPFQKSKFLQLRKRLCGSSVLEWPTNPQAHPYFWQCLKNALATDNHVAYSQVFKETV
Excerpt: The most common variant sequence of human TLR7 (represented by the EMBL sequence AF240467) was cloned into the mammalian cell expression vector pUNO and transfected into a HEK293 cell line already stably expressing the pNiFty2-SEAP reporter plasmid; integration of the reporter gene was maintained by selection with the antibiotic zeocin. Transfectants with stable TLR7 expression were selected using the antibiotic blasticidin. In this reporter cell-line, expression of secreted alkaline phosphatase (SEAP) is controlled by an NFkB/ELAM-1 composite promoter comprising five NFkB sites combined with the proximal ELAM-1 promoter. TLR signaling leads to the translocation of NFkB and activation of the promoter results in expression of the SEAP gene. TLR7-specific activation was assessed by determining the level of SEAP produced following overnight incubation of the cells at 37° C. with the standard compound in the presence of 0.1% (v/v) dimethylsulfoxide (DMSO). Concentration dependent induction of SEAP production by compounds was expressed as the concentration of compound which produced half of the maximal level of SEAP induction for that compound (pEC50).

SMILES	EC50
CCCCc1nc2c(N)nc3ccccc3c2n1CCCN(Cc1ccc(CC(=O)OC)cc1)C(C)=O [Example 16, Methyl 2-(4-((N-(3-(4-amino-2-butyl-1H-imidazo[4,5-c]quinolin-1-yl)propyl)acetamido)methyl)phenyl)acetate]	126 nM
CCCCc1nc2c(N)nc3ccccc3c2n1CCCN(Cc1ccc(CC(=O)OC)cc1)C(=O)CN1CCN(S(=O)(=O)CC)CC1 [Example 23, Methyl 2-(4-((N-(3-(4-amino-2-butyl-1H-imidazo[4,5-c]quinolin-1-yl)propyl)-2-(4-(ethylsulfonyl)piperazin-1-yl)acetamido)methyl)phenyl)acetate]	251 nM
CCCCc1nc2c(N)nc3ccccc3c2n1CCCN(Cc1cccc(CC(=O)OC)c1)C(=O)CN1CCC(O)CC1 [Example 50, Methyl 2-(3-((N-(3-(4-amino-2-butyl-1H-imidazo[4,5-c]quinolin-1-yl)propyl)-2-(4-hydroxypiperidin-1-yl)acetamido)methyl)phenyl)acetate]	501 nM
CCCCc1nc2c(N)nc3ccccc3c2n1CCCN(Cc1ccc(CC(=O)OC)cc1)C1CCN(C)CC1 [Example 9, Methyl 2-(4-(((3-(4-amino-2-butyl-1H-imidazo[4,5-c]quinolin-1-yl)propyl)(1-methylpiperidin-4-yl)amino)methyl)phenyl)acetate]	631 nM
CCCCc1nc2c(N)nc3ccccc3c2n1CCCNCc1cccc(CC(=O)OC)c1 [Example 2, Methyl 2-(3-((3-(4-amino-2-butyl-1H-imidazo[4,5-c]quinolin-1-yl)propylamino)methyl)phenyl)acetate]	398 nM
CCOCc1nc2c(N)nc3ccccc3c2n1CCCN(Cc1cccc(CC(=O)OC)c1)C(=O)CN(C)C [Example 7, Methyl 2-(3-((N-(3-(4-amino-2-(ethoxymethyl)-1H-imidazo[4,5-c]quinolin-1-yl)propyl)-2-(dimethylamino)acetamido)methyl)phenyl)acetate]	398 nM
CCCCc1nc2c(N)nc3ccccc3c2n1CCCN(CCCN(C)CC)Cc1cccc(CC(=O)OC)c1 [Example 13, Methyl 2-(3-(((3-(4-amino-2-butyl-1H-imidazo[4,5-c]quinolin-1-yl)propyl)(3-(ethyl(methyl)amino)propyl)amino)methyl)phenyl)acetate]	158 nM
CCCCc1nc2c(N)nc3ccccc3c2n1CCCN(Cc1cccc(CC(=O)OC)c1)C(=O)CN1CCC(C(=O)N(C)C)CC1 [Example 52, Methyl 2-(3-((N-(3-(4-amino-2-butyl-1H-imidazo[4,5-c]quinolin-1-yl)propyl)-2-(4-(dimethylcarbamoyl)piperidin-1-yl)acetamido)methyl)phenyl)acetate]	631 nM
CCCCc1nc2c(N)nc3ccccc3c2n1CCCN(Cc1ccc(CC(=O)OC)cc1)C(=O)CN1CCC(C(=O)OC)CC1 [Example 28, Methyl 1-(2-((3-(4-amino-2-butyl-1H-imidazo[4,5-c]quinolin-1-yl)propyl)(4-(2-methoxy-2-oxoethyl)benzyl)amino)-2-oxoethyl)piperidine-4-carboxylate]	200 nM
CCCCc1nc2c(N)nc3ccccc3c2n1CCCN(Cc1cccc(CC(=O)OC)c1)C(=O)CN1CC(O)C1 [Example 45, Methyl 2-(3-((N-(3-(4-amino-2-butyl-1H-imidazo[4,5-c]quinolin-1-yl)propyl)-2-(3-hydroxyazetidin-1-yl)acetamido)methyl)phenyl)acetate]	1580 nM
COCCc1nc2c(N)nc3ccccc3c2n1CCCN(Cc1cccc(CC(=O)OC)c1)C(=O)CN1CCN(C)CC1 [Example 72, Methyl 2-(3-((N-(3-(4-amino-2-(2-methoxyethyl)-1H-imidazo[4,5-c]quinolin-1-yl)propyl)-2-(4-methylpiperazin-1-yl)acetamido)methyl)phenyl)acetate]	501 nM
CCCCc1nc2c(N)nc3ccccc3c2n1CCCN(Cc1ccc(CC(=O)OC)cc1)C(=O)CN(C)C [Example 3, Methyl 2-(4-((N-(3-(4-amino-2-butyl-1H-imidazo[4,5-c]quinolin-1-yl)propyl)-2-(dimethylamino)acetamido)methyl)phenyl)acetate]	79.4 nM
CCCCc1nc2c(N)nc3ccccc3c2n1CCCN(Cc1cccc(CC(=O)OC)c1)C(=O)CN(C)CCCC [Example 40, Methyl 2-(3-((N-(3-(4-amino-2-butyl-1H-imidazo[4,5-c]quinolin-1-yl)propyl)-2-(butyl(methyl)amino)acetamido)methyl)phenyl)acetate]	126 nM
CCCCc1nc2c(N)nc3ccccc3c2n1CCCN(Cc1cccc(CC(=O)OC)c1)C(=O)CN(C)C [Example 4, Methyl 2-(3-((N-(3-(4-amino-2-butyl-1H-imidazo[4,5-c]quinolin-1-yl)propyl)-2-(dimethylamino)acetamido)methyl)phenyl)acetate]	39.8 nM
COCCc1nc2c(N)nc3ccccc3c2n1CCCN(Cc1ccc(CC(=O)OC)cc1)C(=O)CN(C)CCOC [Example 32, Methyl 2-(4-((N-(3-(4-amino-2-(2-methoxyethyl)-1H-imidazo[4,5-c]quinolin-1-yl)propyl)-2-((2-methoxyethyl)(methyl)amino)acetamido)methyl)phenyl)acetate]	158 nM
CCCCc1nc2c(N)nc3ccccc3c2n1CCCN(Cc1cccc(CC(=O)OC)c1)C(=O)CN1CC[C@@H](O)C1 [Example 48, (R)-Methyl 2-(3-((N-(3-(4-amino-2-butyl-1H-imidazo[4,5-c]quinolin-1-yl)propyl)-2-(3-hydroxypyrrolidin-1-yl)acetamido)methyl)phenyl)acetate]	398 nM
CCCCc1nc2c(N)nc3ccccc3c2n1CCCN(Cc1ccc(CC(=O)OC)cc1)C(=O)CN1CCC(NC(=O)OC(C)(C)C)CC1 [Example 25, Methyl 2-(4-((N-(3-(4-amino-2-butyl-1H-imidazo[4,5-c]quinolin-1-yl)propyl)-2-(4-(tert-butoxycarbonylamino)piperidin-1-yl)acetamido)methyl)phenyl)acetate]	200 nM
CCCCc1nc2c(N)nc3ccccc3c2n1CCCN(Cc1ccc(CC(=O)OC)cc1)C(=O)CN1CCN(CCOC)CC1 [Example 66, Methyl 2-(4-((N-(3-(4-amino-2-butyl-1H-imidazo[4,5-c]quinolin-1-yl)propyl)-2-(4-(2-methoxyethyl)piperazin-1-yl)acetamido)methyl)phenyl)acetate]	158 nM
CCCCc1nc2c(N)nc3ccccc3c2n1CCCN(Cc1ccc(CC(=O)OC)cc1)C(=O)CN1CCC(N(C)C(=O)OC(C)(C)C)CC1 [Example 26, Methyl 2-(4-((N-(3-(4-amino-2-butyl-1H-imidazo[4,5-c]quinolin-1-yl)propyl)-2-(4-(tert-butoxycarbonyl(methyl)amino)piperidin-1-yl)acetamido)methyl)phenyl)acetate]	316 nM
CCCCc1nc2c(N)nc3ccccc3c2n1CCCN(Cc1cccc(CC(=O)OC)c1)C(=O)CN(C)CCOC [Example 39, Methyl 2-(3-((N-(3-(4-amino-2-butyl-1H-imidazo[4,5-c]quinolin-1-yl)propyl)-2-((2-methoxyethyl)(methyl)amino)acetamido)methyl)phenyl)acetate]	158 nM
CCCCc1nc2c(N)nc3ccccc3c2n1CCCN(CCCN1CCN(C)CC1)Cc1cccc(CC(=O)OC)c1 [Example 14, Methyl 2-(3-(((3-(4-amino-2-butyl-1H-imidazo[4,5-c]quinolin-1-yl)propyl)(3-(4-methylpiperazin-1-yl)propyl)amino)methyl)phenyl)acetate]	251 nM
CCCCc1nc2c(N)nc3ccccc3c2n1CCCN(Cc1cccc(CC(=O)OC)c1)C(=O)CN(C)C1CCOCC1 [Example 43, Methyl 2-(3-((N-(3-(4-amino-2-butyl-1H-imidazo[4,5-c]quinolin-1-yl)propyl)-2-(methyl(tetrahydro-2H-pyran-4-yl)amino)acetamido)methyl)phenyl)acetate]	126 nM

test system: Male Brown Norway rats; test: Antigen-induced pulmonary inflammation in a rat asthma model (OVA challenge, BALF); assay type: in vivo; details: 0.1 mg/kg intratracheally 24 h before and 24 h after OVA-challenge; BALF 48 h after challenge; Mean ± SE (n = 8)
Excerpt: Rats were sensitised and challenged to produce allergic airway inflammation in a similar manner to that described by Underwood et al (British Journal of Pharmacology 2002; 137: 263-275, 2002). Male Brown Norway rats were sensitized subcutaneously with ovalbumin (OVA) and aluminum hydroxide on day 0, and challenged with aerosolized OVA solution on day14.

SMILES	Eosinophiles (cells/BALF)	IL-5 (pg/ml BALF)	IL-13 (pg/ml BALF)
CCCCc1nc2c(N)nc3ccccc3c2n1CCCN(Cc1ccc(CC(=O)OC)cc1)C(=O)CN(C)C [Example 3, Methyl 2-(4-((N-(3-(4-amino-2-butyl-1H-imidazo[4,5-c]quinolin-1-yl)propyl)-2-(dimethylamino)acetamido)methyl)phenyl)acetate]	67.2 ± 16.3 cells/BALF	18.0 ± 8.7 pg/ml BALF	<4.9 pg/ml BALF

same assay, conditions: 1 mg/kg intratracheally 24 h before and 24 h after OVA-challenge; BALF 48 h after challenge; Mean ± SE (n = 8)

SMILES	Eosinophiles (cells/BALF)	IL-5 (pg/ml BALF)	IL-13 (pg/ml BALF)
CCCCc1nc2c(N)nc3ccccc3c2n1CCCN(Cc1ccc(CC(=O)OC)cc1)C(=O)CN(C)C [Example 3, Methyl 2-(4-((N-(3-(4-amino-2-butyl-1H-imidazo[4,5-c]quinolin-1-yl)propyl)-2-(dimethylamino)acetamido)methyl)phenyl)acetate]	36.2 ± 11.3 cells/BALF	11.3 ± 7.5 pg/ml BALF	<4.9 pg/ml BALF
